Measured values reported in patent US10294202B2, “Pyrrolidinones as herbicides” (FMC Corporation, priority 2013, dated 2019).

Columns and labels:
Assay in all cases: Test D pre-/postemergence herbicide test
[1] = test system: canarygrass; format: in vivo, Phalaris minor; details: for Plant response rating: Canarygrass, scale 0 to 100; for Plant response rating, Canarygrass: scale 0 to 100 (0 no effect, 100 complete control)
How it was run: (§1)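 Greenhouse pre- and postemergence screen with surfactant-containing non-phytotoxic solvent formulations. Silt loam soil served for preemergence application, and peat/vermiculite medium for postemergence application at 2–18 cm height. Visual 0–100 control ratings versus controls were recorded 7 to 21 days later.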

[2] = test system: ryegrass, Italian; format: in vivo, Lolium multiflorum; details: for Plant response rating: Postemergence, Ryegrass, Italian, scale 0 to 100; for Plant response rating, Ryegrass, Italian: Preemergence, scale 0 to 100 (0 no effect, 100 complete control)
How it was run: as §1

[3] = test system: pigweed; format: in vivo, Amaranthus retroflexus; details: for Plant response rating: Postemergence, Pigweed, scale 0 to 100; for Plant response rating, Pigweed: Preemergence, scale 0 to 100 (0 no effect, 100 complete control)
From the text: (§2) Seeds of plant species selected from bluegrass (annual bluegrass, Poa annua), blackgrass (Alopecurus myosuroides), canarygrass (littleseed canarygrass, Phalaris minor), chickweed (common chickweed, Stellaria media), galium (catchweed bedstraw, Galium aparine), bromegrass, downy (downy bromegrass, Bromus tectorum), field poppy (Papaver rhoeas), field violet (Viola arvensis), foxtail, green (green foxtail, Setaria viridis), deadnettle (henbit deadnettle, Lamium amplexicaule), ryegrass, Italian (Italian ryegrass, Lolium multiflorum), kochia (Kochia scoparia), lambsquarters (Chenopodium album), oilseed rape (Brassica napus), pigweed (Amaranthus retroflexus), chamomile (scentless chamomile, Matricaria inodora), Russian thistle (Salsola kali), speedwell (bird's-eye speedwell, Veronica persica), barley, spring (spring barley, Hordeum vulgare), wheat, spring (spring wheat, Triticum aestivum), buckwheat, wild (wild buckwheat, Polygonum convolvulus), mustard, wild (wild mustard, Sinapis arvensis), oat, wild (wild oat, Avena fatua), radish, wild (wild radish, Raphanus raphanistrum), […]), barley, winter (winter barley, Hordeum vulgare), and wheat, winter (winter wheat, Triticum aestivum) were planted into a silt loam soil and treated preemergence with test chemicals formulated in a non-phytotoxic solvent mixture which included a surfactant. At the same time, these species were planted in pots containing Redi-Earth® planting medium (Scotts Company, 14111 Scottslawn Road, Marysville, Ohio 43041) comprising spaghnum peat moss, vermiculite, wetting agent and starter nutrients and treated with postemergence applications of the test chemicals formulated in the same manner. Plants ranged in height from 2 to 18 cm (1- to 4-leaf stage). Treated plants and controls were maintained in a controlled growth environment for 7 to 21 days after which time all species were compared to controls and visually evaluated. Plant response ratings, summarized in Table D, are based on a scale of 0 to 100 where 0 is no effect and 100 is complete control. A dash (-) response means no test result.

[4] = test system: Russian thistle; format: in vivo, Salsola kali; details: for Plant response rating: Postemergence, Russian Thistle, scale 0 to 100; for Plant response rating, Russian Thistle: Preemergence, scale 0 to 100 (0 no effect, 100 complete control)
From the text: as §2

[5] = test system: speedwell; format: in vivo, Veronica persica; details: for Plant response rating: Postemergence, Speedwell, scale 0 to 100; for Plant response rating, Speedwell: Preemergence, scale 0 to 100 (0 no effect, 100 complete control)
From the text: as §2

[6] = test system: barley, spring; format: in vivo, Hordeum vulgare; details: for Plant response rating: Barley, Spring, scale 0 to 100; for Plant response rating, Barley, Spring: scale 0 to 100 (0 no effect, 100 complete control)
How it was run: as §1

[7] = test system: barley, winter; format: in vivo, Hordeum vulgare; details: for Plant response rating: Barley, Winter, scale 0 to 100; for Plant response rating, Barley, Winter: scale 0 to 100 (0 no effect, 100 complete control)
How it was run: as §1

[8] = test system: windgrass; format: in vivo, Apera spica-venti; details: for Plant response rating: Postemergence, Windgrass, scale 0 to 100; for Plant response rating, Windgrass: Preemergence, scale 0 to 100 (0 no effect, 100 complete control)
How it was run: as §1

SMILES: O=C1NCC(c2ccc(F)c(F)c2)C1C(=O)Nc1cccc(F)c1 (racemic) [Compound 12]
- Plant response rating ([1]; Postemergence, 16 g ai/ha): 0
- Plant response rating ([1]; Postemergence, 31 g ai/ha): 0
- Plant response rating ([1]; Postemergence, 62 g ai/ha): 15
- Plant response rating ([1]; Postemergence, 125 g ai/ha): 15
- Plant response rating ([1]; Postemergence, 250 g ai/ha): 30
- Plant response rating, Canarygrass ([1]; Preemergence, 31 g ai/ha): 0
- Plant response rating, Canarygrass ([1]; Preemergence, 62 g ai/ha): 0
- Plant response rating, Canarygrass ([1]; Preemergence, 16 g ai/ha): 0
- Plant response rating ([1]; Preemergence, 125 g ai/ha): 20
- Plant response rating ([1]; Preemergence, 250 g ai/ha): 40
- Plant response rating ([2]; 16 g ai/ha): 0
- Plant response rating ([2]; 31 g ai/ha): 0
- Plant response rating ([2]; 62 g ai/ha): 0
- Plant response rating ([2]; 125 g ai/ha): 10
- Plant response rating ([2]; 250 g ai/ha): 15
- Plant response rating, Ryegrass, Italian ([2]; 31 g ai/ha): 0
- Plant response rating, Ryegrass, Italian ([2]; 62 g ai/ha): 0
- Plant response rating, Ryegrass, Italian ([2]; 125 g ai/ha): 0
- Plant response rating, Ryegrass, Italian ([2]; 250 g ai/ha): 0
- Plant response rating, Ryegrass, Italian ([2]; 16 g ai/ha): 0
- Plant response rating ([3]; 16 g ai/ha): 0
- Plant response rating ([3]; 31 g ai/ha): 10
- Plant response rating ([3]; 62 g ai/ha): 25
- Plant response rating ([3]; 125 g ai/ha): 30
- Plant response rating ([3]; 250 g ai/ha): 50
- Plant response rating, Pigweed ([3]; 31 g ai/ha): 0
- Plant response rating, Pigweed ([3]; 62 g ai/ha): 0
- Plant response rating, Pigweed ([3]; 125 g ai/ha): 0
- Plant response rating, Pigweed ([3]; 250 g ai/ha): 0
- Plant response rating, Pigweed ([3]; 16 g ai/ha): 0
- Plant response rating ([4]; 16 g ai/ha): 0
- Plant response rating ([4]; 31 g ai/ha): 0
- Plant response rating ([4]; 62 g ai/ha): 20
- Plant response rating ([4]; 125 g ai/ha): 30
- Plant response rating ([4]; 250 g ai/ha): 80
- Plant response rating, Russian Thistle ([4]; 31 g ai/ha): 0
- Plant response rating, Russian Thistle ([4]; 62 g ai/ha): 0
- Plant response rating, Russian Thistle ([4]; 125 g ai/ha): 0
- Plant response rating, Russian Thistle ([4]; 250 g ai/ha): 0
- Plant response rating, Russian Thistle ([4]; 16 g ai/ha): 0
- Plant response rating ([5]; 16 g ai/ha): 0
- Plant response rating ([5]; 31 g ai/ha): 0
- Plant response rating ([5]; 62 g ai/ha): 10
- Plant response rating ([5]; 125 g ai/ha): 10
- Plant response rating ([5]; 250 g ai/ha): 25
- Plant response rating, Speedwell ([5]; 31 g ai/ha): 0
- Plant response rating, Speedwell ([5]; 62 g ai/ha): 0
- Plant response rating, Speedwell ([5]; 125 g ai/ha): 0
- Plant response rating, Speedwell ([5]; 250 g ai/ha): 100
- Plant response rating, Speedwell ([5]; 16 g ai/ha): 0
- Plant response rating ([6]; Postemergence, 16 g ai/ha): 0
- Plant response rating ([6]; Postemergence, 31 g ai/ha): 0
- Plant response rating ([6]; Postemergence, 62 g ai/ha): 5
- Plant response rating ([6]; Postemergence, 125 g ai/ha): 5
- Plant response rating ([6]; Postemergence, 250 g ai/ha): 5
- Plant response rating, Barley, Spring ([6]; Preemergence, 31 g ai/ha): 0
- Plant response rating, Barley, Spring ([6]; Preemergence, 62 g ai/ha): 0
- Plant response rating, Barley, Spring ([6]; Preemergence, 16 g ai/ha): 0
- Plant response rating ([6]; Preemergence, 125 g ai/ha): 0
- Plant response rating ([6]; Preemergence, 250 g ai/ha): 0
- Plant response rating ([7]; Postemergence, 16 g ai/ha): 0
- Plant response rating ([7]; Postemergence, 31 g ai/ha): 0
- Plant response rating ([7]; Postemergence, 62 g ai/ha): 0
- Plant response rating ([7]; Postemergence, 125 g ai/ha): 0
- Plant response rating ([7]; Postemergence, 250 g ai/ha): 0
- Plant response rating, Barley, Winter ([7]; Preemergence, 31 g ai/ha): 0
- Plant response rating, Barley, Winter ([7]; Preemergence, 62 g ai/ha): 0
- Plant response rating, Barley, Winter ([7]; Preemergence, 16 g ai/ha): 0
- Plant response rating ([7]; Preemergence, 125 g ai/ha): 0
- Plant response rating ([7]; Preemergence, 250 g ai/ha): 0
- Plant response rating ([8]; 16 g ai/ha): 0
- Plant response rating ([8]; 31 g ai/ha): 0
- Plant response rating ([8]; 62 g ai/ha): 0
- Plant response rating ([8]; 125 g ai/ha): 0
- Plant response rating ([8]; 250 g ai/ha): 5
- Plant response rating, Windgrass ([8]; 31 g ai/ha): 0
- Plant response rating, Windgrass ([8]; 62 g ai/ha): 0
- Plant response rating, Windgrass ([8]; 125 g ai/ha): 0
- Plant response rating, Windgrass ([8]; 250 g ai/ha): 0
- Plant response rating, Windgrass ([8]; 16 g ai/ha): 0
